Source: US20150196562A1, “FORMULATIONS OF 3-(5-AMINO-2-METHYL-4-OXO-4H-QUINAZOLIN-3-YL)-PIPERIDINE-2,6-DIONE” (Celgene Corporation, priority 2014, published 2015)

Assay: Degradation of Compound A by hydrolysis
Type: physicochemical
Settings: water
Text: Also provided herein are anhydrous pharmaceutical compositions and dosage forms including an active ingredient, since water can facilitate the degradation of some compounds. For example, the addition of water (e.g., 5 percent) is widely accepted in the pharmaceutical arts as a means of simulating shelf-life, i.e., long-term storage in order to determine characteristics such as shelf-life or the stability of formulations over time. See, e.g., Jens T. Carstensen, Drug Stability: Principles & Practice, 2d. Ed., Marcel Dekker, NY, N.Y., 1995, pp. 379-80. In effect, water and heat accelerate decomposition. Thus, the effect of water on a formulation can be of great significance since moisture and/or humidity are commonly encountered during manufacture, handling, packaging, storage, shipment, and use of formulations.

Cc1nc2cccc(N)c2c(=O)n1C1CCC(=O)NC1=O (stereo not shown) [Compound A, 3-(5-amino-2-methyl-4-oxo-4H-quinazolin-3-yl)-piperidine-2,6-dione]
degradation by hydrolysis: easily degraded by hydrolysis
